The target in this assay is T1, Human BCL-XL protein (N-terminal HiBiT tagged BCL-XL in HT1080 cells) (Homo sapiens, UniProt Q07817).
T1 construct: expressed in transfected cells; host or cells: HT-1080 (ATCC CCL-121), stably transduced with lentivirus pLV-UBC-N-HiBiT-BCL-XL-PGK-puro and selected with puromycin
Description: HiBiT based degradation assay. It counts as cell-based. Conditions: HT1080 cells expressing HiBiT-BCL-XL; for Ymin (24 h) / Ymin (6 h): BCL-XL degradation normalized with DMSO control; for DC50: BCL-XL degradation. Put shortly:
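HT1080 cells stably transduced by lentivirus with N-terminally HiBiT-tagged human BCL-XL and kept under 1 μg/mL puromycin selection were seeded at three thousand cells per well in 40 μL RPMI 1640 into 384-well plates pre-spotted with compounds across a concentration range. Luminescence was read on a PHERAstar FSX, normalized to DMSO, and fitted with a four-parameter logistic model.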
A general note: The HiBiT peptide binds its large partner to form an active luciferase.

Where two headings read alike, the source gives them in different places.

T1 sequence (Q07817 whole entry): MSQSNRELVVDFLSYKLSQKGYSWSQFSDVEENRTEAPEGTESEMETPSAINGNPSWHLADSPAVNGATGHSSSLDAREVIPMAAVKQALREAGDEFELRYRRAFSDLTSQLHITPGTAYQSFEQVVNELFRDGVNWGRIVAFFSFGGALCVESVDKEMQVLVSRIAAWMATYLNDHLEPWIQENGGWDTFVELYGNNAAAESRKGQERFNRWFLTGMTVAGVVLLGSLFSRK

Turning to `Cc1c(OCCCC2CCN(CCN3CCN(c4cccc5c(C6CCC(=O)NC6=O)nn(C)c45)CC3)CC2)cccc1-c1ccc(N2CCc3cccc(C(=O)Nc4nc5ccccc5s4)c3C2)nc1C(=O)O` (centres unmarked) [Compound 230, 6-(8-(benzo[d]thiazol-2-ylcarbamoyl)-3,4-dihydroisoquinolin-2(1H)-yl)-3-(3-(3-(1-(2-(4-(3-(2,6-dioxopiperidin-3-yl)-1-methyl-1H-indazol-7-yl)piperazin-1-yl)ethyl)piperidin-4-yl)propoxy)-2-methylphenyl)picolinic acid], under “24 h”, the “Ymin (24 h)” value is “A (Ymin < 50%)”. In addition, the DC50 (24 h, read-out: EC50 (24 h)) is under 0.1 µM.

Regarding `Cc1c(OCCCN2[C@H](C)CN(CC(=O)Nc3ccc4c(C5CCC(=O)NC5=O)nn(C)c4c3)C[C@@H]2C)cccc1-c1ccc(N2CCc3cccc(C(=O)Nc4nc5ccccc5s4)c3C2)nc1C(=O)O` (stereo partly drawn) [Compound 131a, 6-[8-(1,3-benzothiazol-2-ylcarbamoyl)-3,4-dihydro-1H-isoquinolin-2-yl]-3-[3-[3-[(2R,6S)-4-[2-[[3-(2,6-dioxo-3-piperidyl)-1-methyl-indazol-6-yl]amino]-2-oxo-ethyl]-2,6-dimethyl-piperazin-1-yl]propoxy]-2-methyl-phenyl]pyridine-2-carboxylic acid], the “Ymin (6 h)” value (6 h) was “A (Ymin < 50%)”. Also, the “Ymin (24 h)” value (24 h) is recorded as “A (Ymin < 50%)”. In addition, the DC50 reads like this: (6 h, read-out: EC50 (6 h)) under 0.1 µM; (24 h, read-out: EC50 (24 h)) under 0.1 µM.

Regarding `Cc1c(OCC[C@H]2CCN(CC(=O)Nc3cccc4c(C5CCC(=O)NC5=O)nn(C)c34)C2)cccc1-c1ccc(N2CCc3cccc(C(=O)Nc4nc5ccccc5s4)c3C2)nc1C(=O)O` (stereo partly drawn) [Compound 231b, 6-[8-(1,3-benzothiazol-2-ylcarbamoyl)-3,4-dihydro-1H-isoquinolin-2-yl]-3-[3-[2-[(3R)-1-[2-[[3-(2,6-dioxo-3-piperidyl)-1-methyl-indazol-7-yl]amino]-2-oxo-ethyl]pyrrolidin-3-yl]ethoxy]-2-methyl-phenyl]pyridine-2-carboxylic acid], under “24 h”, the “Ymin (24 h)” value is reported as “B (50% ≤ Ymin < 70%)”. Also, the DC50 (24 h, read-out: EC50 (24 h)) was under 0.1 µM.

With `Cc1c(OCCC2CCN(CC(=O)Nc3cccc4c(C5CCC(=O)NC5=O)nn(C)c34)CC2)cccc1-c1ccc(N2CCc3cccc(C(=O)Nc4nc5ccccc5s4)c3C2)nc1C(=O)O` (centres unmarked) [Compound 101, 6-[8-(1,3-benzothiazol-2-ylcarbamoyl)-3,4-dihydro-1H-isoquinolin-2-yl]-3-[3-[2-[1-[2-[[3-(2,6-dioxo-3-piperidyl)-1-methyl-indazol-7-yl]amino]-2-oxo-ethyl]-4-piperidyl]ethoxy]-2-methyl-phenyl]pyridine-2-carboxylic acid], the “Ymin (6 h)” value (6 h) is “B (50% ≤ Ymin < 70%)”. Also, for the setting “24 h”, the “Ymin (24 h)” value is on record as “B (50% ≤ Ymin < 70%)”. The DC50 was under 0.1 µM (6 h, read-out: EC50 (6 h)) and under 0.1 µM (24 h, read-out: EC50 (24 h)).

For the molecule `Cc1cc(OC[C@H](C)CC2CCN(CC(=O)Nc3ccc4c(C5CCC(=O)NC5=O)nn(C)c4c3)CC2)ccc1-c1ccc(N2CCc3cccc(C(=O)Nc4nc5ccccc5s4)c3C2)nc1C(=O)O` (single isomer, unassigned) [Compound 271a], the “Ymin (24 h)” value (24 h) is reported as “A (Ymin < 50%)”. For the setting “24 h, read-out: EC50 (24 h)”, the DC50 was under 0.1 µM.

For the molecule `Cc1c(Oc2ccccc2CCCC(=O)Nc2cccc3c(C4CCC(=O)NC4=O)nn(C)c23)cccc1-c1ccc(N2CCc3cccc(C(=O)Nc4nc5ccccc5s4)c3C2)nc1C(=O)O` (centres unmarked) [Compound 128, 6-(8-(benzo[d]thiazol-2-ylcarbamoyl)-3,4-dihydroisoquinolin-2(1H)-yl)-3-(3-(2-(4-((3-(2,6-dioxopiperidin-3-yl)-1-methyl-1H-indazol-7-yl)amino)-4-oxobutyl)phenoxy)-2-methylphenyl)picolinic acid], the “Ymin (6 h)” value (6 h) is given as “C (Ymin ≥ 70%)”. Further, the “Ymin (24 h)” value (24 h) is reported as “C (Ymin ≥ 70%)”. The DC50 was 1 to 10 µM (6 h, read-out: EC50 (6 h)) and under 0.1 µM (24 h, read-out: EC50 (24 h)).

For the molecule `Cc1cc(OCCCC2CCN(CC(=O)Nc3ccc4c(C5CCC(=O)NC5=O)nn(C)c4c3)CC2)ccc1-c1ccc(N2CCc3cccc(C(=O)Nc4nc5ccccc5s4)c3C2)nc1C(=O)O` (centres unmarked) [Compound 184, 6-[8-(1,3-benzothiazol-2-ylcarbamoyl)-3,4-dihydro-1H-isoquinolin-2-yl]-3-[4-[3-[1-[2-[[3-(2,6-dioxo-3-piperidyl)-1-methyl-indazol-6-yl]amino]-2-oxo-ethyl]-4-piperidyl]propoxy]-2-methyl-phenyl]pyridine-2-carboxylic acid], for the setting “6 h”, the “Ymin (6 h)” value is recorded as “A (Ymin < 50%)”. In addition, for the setting “24 h”, the “Ymin (24 h)” value is “A (Ymin < 50%)”. Further, the DC50 reads like this: (6 h, read-out: EC50 (6 h)) under 0.1 µM; (24 h, read-out: EC50 (24 h)) under 0.1 µM.

Take `Cc1c(OCC(F)(F)CC2CCN(CC(=O)Nc3ccc4c(C5CCC(=O)NC5=O)nn(C)c4c3)CC2)cccc1-c1ccc(N2CCc3cccc(C(=O)Nc4nc5ccccc5s4)c3C2)nc1C(=O)O` (centres unmarked) [Compound 181, 6-[8-(1,3-benzothiazol-2-ylcarbamoyl)-3,4-dihydro-1H-isoquinolin-2-yl]-3-[3-[3-[1-[2-[[3-(2,6-dioxo-3-piperidyl)-1-methyl-indazol-6-yl]amino]-2-oxo-ethyl]-4-piperidyl]-2,2-difluoro-propoxy]-2-methyl-phenyl]pyridine-2-carboxylic acid]: the “Ymin (24 h)” value (24 h) is “A (Ymin < 50%)”. Also, for the setting “24 h, read-out: EC50 (24 h)”, the DC50 was under 0.1 µM.

`Cc1cc(OCCC[C@H]2CCN(CC(=O)Nc3ccc4c(C5CCC(=O)NC5=O)nn(C)c4c3)[C@@H](C)C2)ccc1-c1ccc(N2CCc3cccc(C(=O)Nc4nc5ccccc5s4)c3C2)nc1C(=O)O` (stereo partly drawn) [Compound 344a, 6-[8-(1,3-benzothiazol-2-ylcarbamoyl)-3,4-dihydro-1H-isoquinolin-2-yl]-3-[4-[3-[(2S,4S)-1-[2-[[3-(2,6-dioxo-3-piperidyl)-1-methyl-indazol-6-yl]amino]-2-oxo-ethyl]-2-methyl-4-piperidyl]propoxy]-2-methyl-phenyl]pyridine-2-carboxylic acid]: for the setting “24 h”, the “Ymin (24 h)” value was “A (Ymin < 50%)”. In addition, for the setting “24 h, read-out: EC50 (24 h)”, the DC50 is under 0.1 µM.

As for `Cc1c(OCCCc2ccc(CC(=O)Nc3ccc4c(C5CCC(=O)NC5=O)nn(C)c4c3)nc2)cccc1-c1ccc(N2CCc3cccc(C(=O)Nc4nc5ccccc5s4)c3C2)nc1C(=O)O` (centres unmarked) [Compound 280, 6-[8-(1,3-benzothiazol-2-ylcarbamoyl)-3,4-dihydro-1H-isoquinolin-2-yl]-3-[3-[3-[6-[2-[[3-(2,6-dioxo-3-piperidyl)-1-methyl-indazol-6-yl]amino]-2-oxo-ethyl]-3-pyridyl]propoxy]-2-methyl-phenyl]pyridine-2-carboxylic acid], the “Ymin (24 h)” value (24 h) was “B (50% ≤ Ymin < 70%)”. The DC50 (24 h, read-out: EC50 (24 h)) is under 0.1 µM.

As to `Cc1c(OCCCN2CCC(CC(=O)Nc3cccc4c(C5CCC(=O)NC5=O)nn(C)c34)CC2)cccc1-c1ccc(N2CCc3cccc(C(=O)Nc4nc5ccccc5s4)c3C2)nc1C(=O)O` (centres unmarked) [Compound 122, 6-[8-(1,3-benzothiazol-2-ylcarbamoyl)-3,4-dihydro-1H-isoquinolin-2-yl]-3-[3-[3-[4-[2-[[3-(2,6-dioxo-3-piperidyl)-1-methyl-indazol-7-yl]amino]-2-oxo-ethyl]-1-piperidyl]propoxy]-2-methyl-phenyl]pyridine-2-carboxylic acid], the “Ymin (6 h)” value (6 h) is “B (50% ≤ Ymin < 70%)”. For the same molecule, the “Ymin (24 h)” value (24 h) is “B (50% ≤ Ymin < 70%)”. The DC50 is under 0.1 µM (6 h, read-out: EC50 (6 h)) and under 0.1 µM (24 h, read-out: EC50 (24 h)).

These data come from patent US20240238423A9, “TETRAHYDROISOQUINOLINE HETEROBIFUNCTIONAL BCL-XL DEGRADERS” (Treeline Biosciences, Inc., priority 2022, published 2024).
